From patent US20260167615A1, “COMPOUNDS AND COMPOSITIONS AS GPR52 MODULATORS” (Neurocrine Biosciences, Inc., priority 2022, published 2026)

Target: recombinant human GPR52 (Homo sapiens, UniProt Q9Y2T5)
Assay: HTRF cAMP assay, GPR52 activity (Example A)
Assay type: cell-based
Conditions: for EC50: average EC50 (n=1 to 15), Flp-In-CHO cells stably expressing recombinant human GPR52, cAMP HTRF, read-out: EC50 (N=); for Emax: maximum cAMP at 10 μM or 31.6 μM test compound, as percentage of Emax of control compound 4-(3-(3-fluoro-5-(trifluoromethyl)benzyl)-5-methyl-4,5-dihydro-1H-1,2,4-triazol-1-yl)-2-methylbenzamide
Procedure, shortened: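 Flp-In CHO cells stably expressing human GPR52 (20,000/well) incubated 30 min at room temperature with compound, cAMP then quantified by competitive HTRF. EC50 from nonlinear fits of cAMP-transformed data normalized to positive control; Emax is top plateau at 10 or 31.6 μM, given as % of a reference agonist's Emax.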

Chain of recombinant human GPR52 (Q9Y2T5 whole entry): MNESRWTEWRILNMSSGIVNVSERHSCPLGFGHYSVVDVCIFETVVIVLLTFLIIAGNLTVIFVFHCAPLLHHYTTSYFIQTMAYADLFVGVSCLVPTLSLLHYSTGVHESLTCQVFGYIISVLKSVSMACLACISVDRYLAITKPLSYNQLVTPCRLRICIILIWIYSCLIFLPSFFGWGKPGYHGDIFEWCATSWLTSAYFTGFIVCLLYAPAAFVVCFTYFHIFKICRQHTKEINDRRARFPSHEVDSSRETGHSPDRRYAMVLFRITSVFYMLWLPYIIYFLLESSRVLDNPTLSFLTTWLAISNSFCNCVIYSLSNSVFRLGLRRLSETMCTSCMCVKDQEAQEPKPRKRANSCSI

| SMILES | EC50 [nM] | Emax [%] |
| --- | --- | --- |
| Cc1cc(-c2cc(Oc3cnc4c(c3)C=C(F)CC4)ccn2)ccc1C(N)=O [Example 121, 4-(4-((6-fluoro-7,8-dihydroquinolin-3-yl)oxy)pyridin-2-yl)-2-methylbenzamide] | 1000 to 2000 | 78 |
| NC(=O)c1ccc(-c2cc(Oc3ccc4cnccc4c3)ccn2)cc1Cl [Example 82, 2-chloro-4-(4-(isoquinolin-6-yloxy)pyridin-2-yl)benzamide] | 101 to 1000 | 110 |
| Cc1nn(C)c2cc(Oc3ccnc(-c4ccc(C(N)=O)c(C(F)(F)F)c4)c3)ccc12 [Example 42, 4-(4-((1,3-dimethyl-1H-indazol-6-yl)oxy)pyridin-2-yl)-2-(trifluoromethyl)benzamide] | 101 to 1000 | 83 |
| Cc1cc(-c2nccc(Oc3ccc4cnn(C)c4c3)n2)ccc1C(N)=O [Example 14, 2-methyl-4-(4-((1-methyl-1H-indazol-6-yl)oxy)pyrimidin-2-yl)benzamide] | 101 to 1000 | 93 |
| CCc1cc(-c2cccc(Oc3ccc4cnn(C)c4c3)c2)ccc1C(=O)NC [Example 65, 3-ethyl-N-methyl-3′-((1-methyl-1H-indazol-6-yl)oxy)-[1,1′-biphenyl]-4-carboxamide] | 1000 to 2000 | 83 |
| Cc1cc(-c2cc(Oc3ccc4c(c3)c(F)nn4C)ccn2)ccc1C(N)=O [Example 129, 4-(4-((3-fluoro-1-methyl-1H-indazol-5-yl)oxy)pyridin-2-yl)-2-methylbenzamide] | 101 to 1000 | 126 |
| Cc1cc(-c2cc(Oc3cnc4c(F)cc(F)cc4c3)ccn2)ccc1C(N)=O [Example 118, 4-(4-((6,8-difluoroquinolin-3-yl)oxy)pyridin-2-yl)-2-methylbenzamide] | 101 to 1000 | 85 |
| CNc1cc(-c2cc(Oc3ccc4c(C)nn(C)c4c3)ccn2)ccc1C(N)=O [Example 35, 4-(4-((1,3-dimethyl-1H-indazol-6-yl)oxy)pyridin-2-yl)-2-(methylamino)benzamide] | 101 to 1000 | 85 |
| CCc1cc(-c2cc(Oc3cnc4cc(F)ccc4c3)ccn2)ccc1C(N)=O [Example 101, 2-ethyl-4-(4-((7-fluoroquinolin-3-yl)oxy)pyridin-2-yl)benzamide] | 101 to 1000 | 80 |
| Cc1cc(-c2cncc(Oc3ccc4cnn(C)c4c3)n2)ccc1C(N)=O [Example 11, 2-methyl-4-(6-((1-methyl-1H-indazol-6-yl)oxy)pyrazin-2-yl)benzamide] | 101 to 1000 | 101 |
| CCc1cc(-c2cc(Oc3cnc4c(F)c(F)ccc4c3)ccn2)ccc1C(N)=O [Example 115, 4-(4-((7,8-difluoroquinolin-3-yl)oxy)pyridin-2-yl)-2-ethylbenzamide] | 101 to 1000 | 100 |
| Cc1cc(-c2cc(Oc3ccc4cnn(C)c4c3)cc(N)n2)ccc1C(N)=O [Example 21, 4-(6-amino-4-((1-methyl-1H-indazol-6-yl)oxy)pyridin-2-yl)-2-methylbenzamide] | 101 to 1000 | 99 |
| CCc1cc(-c2cc(Oc3cnc4c(c3)c(C(F)(F)F)nn4C)cc(N)n2)ccc1C(N)=O [Example 24, 4-(6-amino-4-((1-methyl-3-(trifluoromethyl)-1H-pyrazolo[3,4-b]pyridin-5-yl)oxy)pyridin-2-yl)-2-ethylbenzamide] | 101 to 1000 | 110 |
| CCc1cc(-c2cc(Oc3cnc4c(c3)c(F)nn4C)ccn2)ccc1C(N)=O [Example 130, 2-ethyl-4-(4-((3-fluoro-1-methyl-1H-pyrazolo[3,4-b]pyridin-5-yl)oxy)pyridin-2-yl)benzamide] | 101 to 1000 | 137 |
| Cc1cc(-c2cc(Oc3ccc4ncc(Cl)cc4c3)ccn2)ccc1C(N)=O [Example 99, 4-(4-((3-chloroquinolin-6-yl)oxy)pyridin-2-yl)-2-methylbenzamide] | 101 to 1000 | 138 |
| CCc1cc(-c2cc(Oc3ccc4cnn(C)c4c3)ccn2)ccc1C(=O)NC [Example 59, 2-ethyl-N-methyl-4-(4-((1-methyl-1H-indazol-6-yl)oxy)pyridin-2-yl)benzamide] | 101 to 1000 | 95 |
| Cn1ncc2ccc(Oc3ccnc(-c4ccc(C(N)=O)c(C(F)(F)F)c4)c3)cc21 [Example 47, 4-(4-((1-methyl-1H-indazol-6-yl)oxy)pyridin-2-yl)-2-(trifluoromethyl)benzamide] | 101 to 1000 | 88 |
| CCc1cc(-c2cc(Oc3cnc4c(c3)C=C(F)CC4)ccn2)ccc1C(N)=O [Example 122, 2-ethyl-4-(4-((6-fluoro-7,8-dihydroquinolin-3-yl)oxy)pyridin-2-yl)benzamide] | 101 to 1000 | 121 |
| CCc1cc(-c2cc(Oc3cnc4c(C)nn(C)c4c3)ccn2)cc(F)c1C(N)=O [Example 34, 4-(4-((1,3-dimethyl-1H-pyrazolo[4,3-b]pyridin-6-yl)oxy)pyridin-2-yl)-2-ethyl-6-fluorobenzamide] | 1000 to 2000 | 77 |
| Cc1cc(-c2cc(Oc3ccc4cnccc4c3)ccn2)ccc1C(N)=O [Example 93, 4-(4-(isoquinolin-6-yloxy)pyridin-2-yl)-2-methylbenzamide] | 101 to 1000 | 118 |
| CCc1cc(-c2cc(Oc3cnc4c(c3)CCCO4)ccn2)ccc1C(N)=O [Example 123, 4-(4-((3,4-dihydro-2H-pyrano[2,3-b]pyridin-6-yl)oxy)pyridin-2-yl)-2-ethylbenzamide] | 101 to 1000 | 88 |
| Cc1cc(-c2cc(Oc3ccc4cccnc4c3)ccn2)ccc1C(N)=O [Example 88, 2-methyl-4-(4-(quinolin-7-yloxy)pyridin-2-yl)benzamide] | 101 to 1000 | 67 |
| Cc1cc(-c2cc(Oc3ccc4ccncc4c3)ccn2)ccc1C(N)=O [Example 79, 4-(4-(isoquinolin-7-yloxy)pyridin-2-yl)-2-methylbenzamide] | 101 to 1000 | 60 |
| Cc1cc(-c2cc(Oc3ccn4nccc4c3)ccn2)ccc1C(N)=O [Example 13, 2-methyl-4-(4-(pyrazolo[1,5-a]pyridin-5-yloxy)pyridin-2-yl)benzamide] | 101 to 1000 | 97 |
| CCc1cc(-c2cc(Oc3cnc4c(F)cc(F)cc4c3)ccn2)ccc1C(N)=O [Example 117, 4-(4-((6,8-difluoroquinolin-3-yl)oxy)pyridin-2-yl)-2-ethylbenzamide] | 101 to 1000 | 115 |
| CCc1cc(-c2cc(Oc3ccc4c(c3)c(F)nn4C)ccn2)ccc1C(N)=O [Example 133, 2-ethyl-4-(4-((3-fluoro-1-methyl-1H-indazol-5-yl)oxy)pyridin-2-yl)benzamide] | 101 to 1000 | 141 |

More lines, now with the values ahead:

| EC50 [nM] | Emax [%] | SMILES |
| --- | --- | --- |
| 101 to 1000 | 103 | Cc1cc(-c2cc(Oc3ccc4cnn(C)c4c3)ccn2)ccc1C(N)=O [Example 43, 2-methyl-4-(4-((1-methyl-1H-indazol-6-yl)oxy)pyridin-2-yl)benzamide] |
| 25 to 100 | 69 | CCc1cc(-c2cc(Oc3cc(F)c4cnn(C)c4c3)cc3nccn23)ccc1C(N)=O [Example 72, 2-ethyl-4-(7-((4-fluoro-1-methyl-1H-indazol-6-yl)oxy)imidazo[1,2-a]pyridin-5-yl)benzamide] |
| 101 to 1000 | 76 | Cc1cc(-c2cc(Oc3ccc4c(cnn4C)c3)ccn2)ccc1C(N)=O [Example 5, 2-methyl-4-(4-((1-methyl-1H-indazol-5-yl)oxy)pyridin-2-yl)benzamide] |
| 101 to 1000 | 91 | NC(=O)c1ccc(-c2cc(Oc3ccc4ncccc4c3)ccn2)cc1Cl [Example 76, 2-chloro-4-(4-(quinolin-6-yloxy)pyridin-2-yl)benzamide] |
| 101 to 1000 | 137 | CCc1cc(-c2cc(Oc3cnc4ccc(Cl)cc4c3)ccn2)ccc1C(N)=O [Example 110, 4-(4-((6-chloroquinolin-3-yl)oxy)pyridin-2-yl)-2-ethylbenzamide] |
| < 25 | 131 | CCc1cc(-c2cc(Oc3ccc4c(c3)NCCO4)ccn2)ccc1C(N)=O [Example 68, 4-(4-((3,4-dihydro-2H-benzo[b][1,4]oxazin-6-yl)oxy)pyridin-2-yl)-2-ethylbenzamide] |
| 25 to 100 | 104 | CCc1cc(-c2cc(Oc3ccc4c(c3)c(C)nn4C)ccn2)ccc1C(N)=O [Example 57, 4-(4-((1,3-dimethyl-1H-indazol-5-yl)oxy)pyridin-2-yl)-2-ethylbenzamide] |
| 25 to 100 | 62 | Cc1cc(-c2cc(Oc3cnc4c(F)c(F)ccc4c3)ccn2)ccc1C(N)=O [Example 116, 4-(4-((7,8-difluoroquinolin-3-yl)oxy)pyridin-2-yl)-2-methylbenzamide] |
| 25 to 100 | 100 | CCc1cc(-c2cc(Oc3cnc4c(c3)c(C(F)(F)F)nn4C)ccn2)ccc1C(N)=O [Example 56, 2-ethyl-4-(4-((1-methyl-3-(trifluoromethyl)-1H-pyrazolo[3,4-b]pyridin-5-yl)oxy)pyridin-2-yl)benzamide] |
| 25 to 100 | 108 | Cc1cc(-c2cc(Oc3ccc4c(c3)c(C)nn4C)ccn2)ccc1C(N)=O [Example 58, 4-(4-((1,3-dimethyl-1H-indazol-5-yl)oxy)pyridin-2-yl)-2-methylbenzamide] |
| < 25 | 105 | CCc1cc(-c2cc(Oc3cc(F)c4cnn(C)c4c3)ccn2)ccc1C(N)=O [Example 36, 2-ethyl-4-(4-((4-fluoro-1-methyl-1H-indazol-6-yl)oxy)pyridin-2-yl)benzamide] |
